Experimental data reported in patent publication US11919858B2, “Aminonapthoquinone compounds and pharmaceutical composition for blocking ubiquitination-proteasome system in diseases” (Calgent Biotechnology Co., Ltd., priority 2015, dated 2024).

Experiments:
Experiment in all cases: Growth inhibition assay
Format in all cases: cell-based
BxPC3 = details: Homo sapiens, BXPC-3; BxPC3 (Pancreas cancer), 48 hours
Description: (§1) Cells were seeded in 96-well plastic plates and exposed to MPT0L056 for 48 hours. Cell viability was assessed using the 3-(4,5-dimethylthiazol-2-yl)-2,5-diphenyltetrazolium bromide assay. Growth inhibition was expressed as the percentage of surviving cells in drug-treated versus DMSO-treated control cells.

U-87 MG = details: Homo sapiens; U-87 MG (Brain cancer), 48 hours
Description: as §1

SK-MEL-5 = details: Homo sapiens; SK-MEL-5 (Melanoma), 48 hours
Description: as §1

NCI-H460 = details: Homo sapiens; NCI-H460 (Lung cancer), 48 hours
Description: as §1

AsPC1 = details: Homo sapiens; AsPC1 (Pancreas cancer), 48 hours
Description: as §1

Ramos = details: Homo sapiens; Ramos (B cell leukemia), 48 hours
Description: as §1

K562 = details: Homo sapiens; K562 (Leukemia), 48 hours
Description: as §1

ZR-75 = details: ZR75; ZR-75 (Breast cancer), 48 hours
Description: as §1

NHDF = details: Homo sapiens; NHDF (Normal cells), 48 hours
Description: as §1

HUVECs = details: Homo sapiens, HUVEC; HUVECs (Normal cells), 48 hours
Description: as §1

OVCAR3 = details: Homo sapiens, OVCAR-3; OVCAR3 (Ovarian cancer), 48 hours
Description: as §1

PC-6 = details: Homo sapiens; PC-6 (Lung cancer), 48 hours
Description: as §1

H33HJ-JA1 = H33HJ-JA1 (T cell lymphoma), 48 hours
Description: as §1

ACHN = details: Homo sapiens; ACHN (Kidney cancer), 48 hours
Description: as §1

Hepatocytes = details: Hepatocyte; Hepatocytes (Normal cells), 48 hours
Description: as §1

T98 = details: Homo sapiens; T98 (Brain cancer), 48 hours
Description: as §1

A-498 = details: Homo sapiens, A498; A-498 (Kidney cancer), 48 hours
Description: as §1

MOLT4 = details: Homo sapiens, MOLT-4; MOLT4 (Leukemia), 48 hours
Description: as §1

HepG2 = details: Homo sapiens; HepG2 (Liver cancer), 48 hours
Description: as §1

OVCAR4 = details: Homo sapiens, OVCAR-4; OVCAR4 (Ovarian cancer), 48 hours
Description: as §1

HT-29 = details: Homo sapiens; HT-29 (Colorectal cancer), 48 hours
Description: as §1

KATO III = details: Homo sapiens; KATO III (Stomach cancer), 48 hours
Description: as §1

REH = details: Homo sapiens; REH (B cell leukemia), 48 hours
Description: as §1

PC-3 = details: Homo sapiens; PC-3 (Prostate cancer), 48 hours
Description: as §1

MCF-7 = details: Homo sapiens, MCF7; MCF-7 (Breast cancer), 48 hours
Description: as §1

A549 = details: Homo sapiens; A549 (Lung cancer), 48 hours
Description: as §1

O=C(Nc1ccncc1)c1ccc(CNC2=C(Cl)C(=O)c3ccccc3C2=O)cc1 [MPT0L056]
GI50 (BxPC3): 1.2 µM
GI50 (U-87 MG): 2.5 µM
GI50 (SK-MEL-5): 0.21 µM
GI50 (NCI-H460): 2.9 µM
GI50 (AsPC1): 4.6 µM
GI50 (Ramos): 0.89 µM
GI50 (K562): 1.7 µM
GI50 (ZR-75): > 5 µM
GI50 (NHDF): 6.3 µM
GI50 (HUVECs): 16 µM
GI50 (OVCAR3): 1.9 µM
GI50 (PC-6): 1.8 µM
GI50 (H33HJ-JA1): 1.8 µM
GI50 (ACHN): 2.7 µM
GI50 (Hepatocytes): 30 µM
GI50 (T98): 5.7 µM
GI50 (A-498): 3.5 µM
GI50 (MOLT4): 4 µM
GI50 (HepG2): 3.6 µM
GI50 (OVCAR4): 1.4 µM
GI50 (HT-29): 3.8 µM
GI50 (KATO III): 2.4 µM
GI50 (REH): 2.8 µM
GI50 (PC-3): 2.5 µM
GI50 (MCF-7): 0.9 µM
GI50 (A549): > 5 µM
